Test results reported in ChEMBL document CHEMBL1125608, “Synthesis and biological activity of angiotensin II analogues containing a Val-His replacement, Val psi[CH(CONH2)NH]His” (J Med Chem, 1991).
Peptide text beside a SMILES is read from it. * marks the point of attachment. Propanoyl(3-(4-MeO-Ph)) = COc1ccc(CCC(=O)*)cc1; Desaminotyrosyl = O=C(CCc1ccc(O)cc1)*; Cbz = O=C(OCc1ccccc1)*

Key:
[1] = system: Angiotensin II receptor (Oryctolagus cuniculus); assay: Displacement of [3H]Angiotensin II (300 ng/mL) from rabbit adrenal cortex
[2] = organism: Cavia porcellus; assay: The compound was tested for its inhibitory activity as antagonist of AI on guinea pig ileum; assay type: functional, organism-based
[3] = target: Angiotensin II receptor (Cavia porcellus); assay: Inhibitory activity as antagonist of AII on guinea pig ileum
[4] = target: Angiotensin II receptor (Cavia porcellus); assay: The compound was tested for its inhibitory activity as antagonist of AII on guinea pig ileum

Structure (SMILES) | Displacement [1] | IC50 [2] | IC50 [3] | IC50 [4]
CC[C@H](C)[C@H](NC(=O)[C@@H]1CCCN1C(=O)[C@H](Cc1c[nH]cn1)NC(=O)[C@@H](NC(=O)OCc1ccccc1)C(C)C)C(=O)O (Cbz-VHPI-OH) | 10% | > 15000 nM | > 15000 nM | 
CC[C@H](C)[C@H](NC(=O)[C@@H]1CCCN1C(=O)[C@H](Cc1c[nH]cn1)NC(=O)[C@@H](NC(=O)CCc1ccc(O)cc1)C(C)C)C(=O)O (Desaminotyrosyl-VHPI-OH) | 0% | > 15000 nM | > 15000 nM | 
CC[C@H](C)[C@H](NC(=O)[C@@H]1CCCN1C(=O)[C@H](Cc1c[nH]cn1)NC(=O)[C@@H](NC(=O)[C@H](Cc1ccc(O)cc1)NC(=O)[C@@H](NC(=O)[C@H](CCCN=C(N)N)NC(=O)CNC)C(C)C)[C@@H](C)CC)C(=O)O |  | 0.17 nM |  | 
CC[C@H](C)[C@H](NC(=O)[C@@H]1CCCN1C(=O)[C@H](Cc1c[nH]cn1)N[C@H](C(N)=O)[C@@H](NC(=O)[C@H](Cc1ccc(O)cc1)NC(=O)[C@@H](NC(=O)[C@H](CCCN=C(N)N)NC(=O)CNC)C(C)C)C(C)C)C(=O)O |  | 345 nM | 330 nM | 
CC[C@H](C)[C@H](NC(=O)[C@H](Cc1ccc(O)cc1)NC(=O)[C@@H](NC(=O)[C@H](CCCN=C(N)N)NC(=O)CNC)C(C)C)C(=O)N[C@@H](Cc1c[nH]cn1)C(=O)N1CCC[C@H]1C(=O)N[C@@H](C)C(=O)O |  | 0.56 nM |  | 
CC[C@H](C)[C@H](NC(=O)[C@@H]1CCCN1C(=O)[C@H](Cc1c[nH]cn1)NC(=O)[C@@H](NC(=O)[C@H](Cc1ccc(O)cc1)NC(=O)[C@@H](NC(=O)[C@H](CCCN=C(N)N)NC(=O)CNC)C(C)C)C(C)C)C(=O)O | 100% | 0.51 nM | 0.45 nM | 
CNCC(=O)N[C@@H](CCCNC(=N)N)C(=O)N[C@H](C(=O)N[C@@H](Cc1ccc(O)cc1)C(=O)N[C@H](C(=O)N[C@@H](Cc1cnc[nH]1)C(=O)N1CCC[C@H]1C(=O)N[C@@H](C)C(=O)O)C(C)C)C(C)C [SARALASIN] |  | 0.048 nM |  | 
CC[C@H](C)[C@H](NC(=O)[C@@H]1CCCN1C(=O)[C@H](Cc1c[nH]cn1)NC(C(N)=O)[C@@H](NC(=O)OCc1ccccc1)C(C)C)C(=O)O (some centres undefined) |  | > 15000 nM |  | > 15000 nM
CC[C@H](C)[C@H](NC(=O)[C@@H]1CCCN1C(=O)[C@H](Cc1c[nH]cn1)NC(=O)[C@@H](NC(=O)CCc1ccc(OC)cc1)C(C)C)C(=O)O ({Propanoyl(3-(4-MeO-Ph))}-VHPI-OH) | 0% | > 15000 nM | > 15000 nM | 
